Experiment: pH stability tests
Type: physicochemical
Protocol: This example provides the results of pH stability tests that were conducted on certain illustrative non-natural amino acids as an aid for predicting their properties for incorporation into non-natural amino acid polypeptides.

COCCOC(=O)NCCO/N=C(\C)C(=O)Nc1ccccc1 [drawing 134]
pH stability (pH 4.0, 1 hour): <1% | pH stability (pH 4.0, 1 day): <1% | pH stability (pH 4.0, 2 days): <1% | pH stability (pH 4.0, 3 days): <1% | pH stability (pH 4.0, 4 days): <1% | pH stability (pH 4.0, 5 days): <1% | pH stability (pH 4.0, 6 days): <1% | pH stability (pH 4.0, 7 days): <1% | pH stability (pH 4.0, 10 days): <1% | pH stability (pH 5.0, 1 hour): <1% | pH stability (pH 5.0, 1 day): <1% | pH stability (pH 5.0, 2 days): <1% | pH stability (pH 5.0, 3 days): <1% | pH stability (pH 5.0, 4 days): <1% | pH stability (pH 5.0, 5 days): <1% | pH stability (pH 5.0, 6 days): <1% | pH stability (pH 5.0, 7 days): <1% | pH stability (pH 5.0, 10 days): <1% | pH stability (pH 6.5, 1 hour): <1% | pH stability (pH 6.5, 1 day): <1% | pH stability (pH 6.5, 2 days): <1% | pH stability (pH 6.5, 3 days): <1% | pH stability (pH 6.5, 4 days): <1% | pH stability (pH 6.5, 5 days): <1% | pH stability (pH 6.5, 6 days): <1% | pH stability (pH 6.5, 7 days): <1% | pH stability (pH 6.5, 10 days): <1% | pH stability (pH 7.4, 1 hour): <1% | pH stability (pH 7.4, 1 day): <1% | pH stability (pH 7.4, 2 days): <1% | pH stability (pH 7.4, 3 days): <1% | pH stability (pH 7.4, 4 days): <1% | pH stability (pH 7.4, 5 days): <1% | pH stability (pH 7.4, 6 days): <1% | pH stability (pH 7.4, 7 days): <1% | pH stability (pH 7.4, 10 days): <1% | pH stability (pH 8.0, 1 hour): <1% | pH stability (pH 8.0, 1 day): <1% | pH stability (pH 8.0, 2 days): <1% | pH stability (pH 8.0, 3 days): <1% | pH stability (pH 8.0, 4 days): <1% | pH stability (pH 8.0, 5 days): <1% | pH stability (pH 8.0, 6 days): <1% | pH stability (pH 8.0, 7 days): <1% | pH stability (pH 8.0, 10 days): <1%

COCCOCNCCO/N=C(\C)CC(=O)c1ccccc1 [drawing 135]
pH stability (pH 4.0, 1 hour): <1% | pH stability (pH 4.0, 1 day): <1% | pH stability (pH 4.0, 2 days): <1% | pH stability (pH 4.0, 3 days): <1% | pH stability (pH 4.0, 4 days): <1% | pH stability (pH 4.0, 5 days): <1% | pH stability (pH 4.0, 6 days): 2% | pH stability (pH 4.0, 7 days): 2% | pH stability (pH 4.0, 10 days): 3% | pH stability (pH 5.0, 1 hour): <1% | pH stability (pH 5.0, 1 day): <1% | pH stability (pH 5.0, 2 days): <1% | pH stability (pH 5.0, 3 days): <1% | pH stability (pH 5.0, 4 days): <1% | pH stability (pH 5.0, 5 days): <1% | pH stability (pH 5.0, 6 days): <1% | pH stability (pH 5.0, 7 days): <1% | pH stability (pH 5.0, 10 days): <1% | pH stability (pH 6.5, 1 hour): <1% | pH stability (pH 6.5, 1 day): <1% | pH stability (pH 6.5, 2 days): <1% | pH stability (pH 6.5, 3 days): <1% | pH stability (pH 6.5, 4 days): <1% | pH stability (pH 6.5, 5 days): <1% | pH stability (pH 6.5, 6 days): <1% | pH stability (pH 6.5, 7 days): <1% | pH stability (pH 6.5, 10 days): <1% | pH stability (pH 7.4, 1 hour): <1% | pH stability (pH 7.4, 1 day): <1% | pH stability (pH 7.4, 2 days): <1% | pH stability (pH 7.4, 3 days): <1% | pH stability (pH 7.4, 4 days): <1% | pH stability (pH 7.4, 5 days): 3% | pH stability (pH 7.4, 6 days): 4% | pH stability (pH 7.4, 7 days): 7% | pH stability (pH 7.4, 10 days): 11% | pH stability (pH 8.0, 1 hour): <1% | pH stability (pH 8.0, 1 day): <1% | pH stability (pH 8.0, 2 days): <1% | pH stability (pH 8.0, 3 days): <1% | pH stability (pH 8.0, 4 days): <1% | pH stability (pH 8.0, 5 days): <1% | pH stability (pH 8.0, 6 days): <1% | pH stability (pH 8.0, 7 days): <1% | pH stability (pH 8.0, 10 days): <1%

COCCOC(=O)NCCO/N=C(\C)C(=O)Nc1ccccc1 [drawing 138]
pH stability (pH 4.0, 1 hour): 4.0% | pH stability (pH 4.0, 1 day): <1% | pH stability (pH 4.0, 2 days): <1% | pH stability (pH 4.0, 3 days): <1% | pH stability (pH 4.0, 4 days): <1% | pH stability (pH 4.0, 5 days): <1% | pH stability (pH 4.0, 6 days): <1% | pH stability (pH 4.0, 7 days): <1% | pH stability (pH 4.0, 10 days): <1% | pH stability (pH 5.0, 1 hour): 5.0% | pH stability (pH 5.0, 1 day): <1% | pH stability (pH 5.0, 2 days): <1% | pH stability (pH 5.0, 3 days): <1% | pH stability (pH 5.0, 4 days): <1% | pH stability (pH 5.0, 5 days): <1% | pH stability (pH 5.0, 6 days): <1% | pH stability (pH 5.0, 7 days): <1% | pH stability (pH 5.0, 10 days): <1% | pH stability (pH 6.5, 1 hour): 6.5% | pH stability (pH 6.5, 1 day): <1% | pH stability (pH 6.5, 2 days): <1% | pH stability (pH 6.5, 3 days): <1% | pH stability (pH 6.5, 4 days): <1% | pH stability (pH 6.5, 5 days): <1% | pH stability (pH 6.5, 6 days): <1% | pH stability (pH 6.5, 7 days): <1% | pH stability (pH 6.5, 10 days): <1% | pH stability (pH 7.4, 1 hour): 7.4% | pH stability (pH 7.4, 1 day): <1% | pH stability (pH 7.4, 2 days): <1% | pH stability (pH 7.4, 3 days): <1% | pH stability (pH 7.4, 4 days): <1% | pH stability (pH 7.4, 5 days): <1% | pH stability (pH 7.4, 6 days): <1% | pH stability (pH 7.4, 7 days): <1% | pH stability (pH 7.4, 10 days): <1% | pH stability (pH 8.0, 1 hour): 8.0% | pH stability (pH 8.0, 1 day): <1% | pH stability (pH 8.0, 2 days): <1% | pH stability (pH 8.0, 3 days): <1% | pH stability (pH 8.0, 4 days): <1% | pH stability (pH 8.0, 5 days): <1% | pH stability (pH 8.0, 6 days): <1% | pH stability (pH 8.0, 7 days): <1% | pH stability (pH 8.0, 10 days): <1%

COCCOCNCCO/N=C(\C)CC(=O)c1ccccc1 [drawing 139]
pH stability (pH 4.0, 1 hour): 4.0% | pH stability (pH 4.0, 1 day): <1% | pH stability (pH 4.0, 2 days): <1% | pH stability (pH 4.0, 3 days): <1% | pH stability (pH 4.0, 4 days): <1% | pH stability (pH 4.0, 5 days): <1% | pH stability (pH 4.0, 6 days): <1% | pH stability (pH 4.0, 7 days): <1% | pH stability (pH 4.0, 10 days): <1% | pH stability (pH 5.0, 1 hour): 5.0% | pH stability (pH 5.0, 1 day): <1% | pH stability (pH 5.0, 2 days): <1% | pH stability (pH 5.0, 3 days): <1% | pH stability (pH 5.0, 4 days): <1% | pH stability (pH 5.0, 5 days): <1% | pH stability (pH 5.0, 6 days): <1% | pH stability (pH 5.0, 7 days): <1% | pH stability (pH 5.0, 10 days): <1% | pH stability (pH 6.5, 1 hour): 6.5% | pH stability (pH 6.5, 1 day): <1% | pH stability (pH 6.5, 2 days): <1% | pH stability (pH 6.5, 3 days): <1% | pH stability (pH 6.5, 4 days): <1% | pH stability (pH 6.5, 5 days): <1% | pH stability (pH 6.5, 6 days): <1% | pH stability (pH 6.5, 7 days): <1% | pH stability (pH 6.5, 10 days): <1% | pH stability (pH 7.4, 1 hour): 7.4% | pH stability (pH 7.4, 1 day): <1% | pH stability (pH 7.4, 2 days): <1% | pH stability (pH 7.4, 3 days): <1% | pH stability (pH 7.4, 4 days): <1% | pH stability (pH 7.4, 5 days): <1% | pH stability (pH 7.4, 6 days): <1% | pH stability (pH 7.4, 7 days): <1% | pH stability (pH 7.4, 10 days): <1% | pH stability (pH 8.0, 1 hour): 8.0% | pH stability (pH 8.0, 1 day): <1% | pH stability (pH 8.0, 2 days): <1% | pH stability (pH 8.0, 3 days): <1% | pH stability (pH 8.0, 4 days): <1% | pH stability (pH 8.0, 5 days): <1% | pH stability (pH 8.0, 6 days): <1% | pH stability (pH 8.0, 7 days): <1% | pH stability (pH 8.0, 10 days): <1%

Reference: patent publication US8008456B2, “Compositions containing, methods involving, and uses of non-natural amino acids and polypeptides” (Ambrx, Inc., priority 2004, dated 2011)
